Experimental data as given in article PMC7584369, “Di-bromo-Based Small-Molecule Inhibitors of the PD-1/PD-L1 Immune Checkpoint” (Journal of Medicinal Chemistry, 2020).
Where “and” joins values, the source holds several entries; their conditions need not be identical. Identical values can stand only once. Entries after “also recorded” stand apart in the source; their conditions may differ. Counter-ions that a name gives are not always drawn. Blank lines part the entries; values can stand above or below the molecule they belong to.

Assays:
[1] = target: T1, PD-1/PD-L1 complex (hPD-L1 and hPD-1) (Homo sapiens, UniProt Q9NZQ7); test: Homogeneous time-resolved fluorescence (HTRF) assay, Cis-Bio kit; format: binding
T1 construct: purchased Cis-Bio

murine PD-L1 = target: T2, murine PD-L1 (Mus musculus, UniProt Q9EP73); test: MicroScale Thermophoresis (MST) binding assay, murine PD-L1; details: mPD-L1
T2 construct: mPD-L1 residues, 19–134; made in house; host or cells: Escherichia coli BL21 (DE3)

wtPD-1/PD-L1 complex = target: T3, wtPD-1/PD-L1 complex (Homo sapiens, UniProt Q9NZQ7); test: AIDA-NMR with wild-type proteins; format: binding; details: wild-type PD-1
T3 construct: hPD-L1 residues, 18–134, C-terminal His-tag; His-tag (C); made in house; host or cells: Escherichia coli BL21 (DE3)

human PD-1/PD-L1 complex = target: T4, human PD-1/PD-L1 complex (Homo sapiens, UniProt Q9NZQ7); test: Competitive ELISA; format: binding; details: dissociation of human PD-1/PD-L1 complex
T4 construct: Fc; purchased Recepton Sp. z o.o; R1-002-1 (PD-L1); R1-001-1 (PD-1)

human PD-L1 [2] = target: T5, human PD-L1 (Homo sapiens, UniProt Q9NZQ7); test: 1H NMR binding assay; details: molar ratio 1:1
T5 construct: hPD-L1 residues, 18–134, C-terminal His-tag; His-tag (C); made in house; host or cells: Escherichia coli BL21 (DE3)
Method: The direct binding of the most prominent compounds 2k and 3d to the human PD-L1 was also confirmed with a ^1H NMR method (Figure S3).
Figure S2 ELISA assay results.
High-binding 96 well plates (Thermo Scientific, cat. 439454) were coated with 1.2 μg/ml (50 μL/well) of Fc-tagged human PD-1 (Recepton Sp. z o.o., cat. R1-001-1) and incubated overnight at 4 ◦C. The plates were warmed to room temperature, washed with wash buffer (1 x PBS, 0.05% Tween 20, pH 7.4) and blocked with 1 % BSA in 1 x PBS, pH 7.4 for 2 h. Standard curve was generated with 0.02 – 50 ug/mL His- and Fc- tagged human PD-L1 (Recepton Sp. z o.o., cat. R1-002-1). […] The bound ligand was detected with the addition of 50 μL/well biotinylated Anty-His antibody (Southern Biotech, cat. 4603-08) followed by 1 h incubation, wash steps and addition of 50 μL/well streptavidin-HRP (Thermo Scientific, cat. 21126). […] The absorbance readings were made on Tecan Spark at the wavelength 450 nm and the reference wavelength 655 nm. IC50 was calculated based on the Δ((A450-A655) from sample – (A450-A655) from background) readings fitted in the plot using a Hill’s […]
For NMR measurements, the buffer was exchanged by gel filtration to PBS pH 7.4. […] All spectra were recorded at 300 K using a Bruker Avance III 600 MHz spectrometer. […]

[3] = target: T6, hPD-1/hPD-L1 immune checkpoint (hPD-L1 aAPCs and Jurkat hPD-1 effector cells) (Homo sapiens, UniProt Q9NZQ7); test: hPD-1/hPD-L1 immune checkpoint blockade cell-based assay (Promega Blockade Bioassay)
T6 construct: host or cells: CHO K-1 (hPD-L1 aAPCs) and Jurkat T cells (hPD-1 effector cells)

[4] = system: Jurkat PD-1 Effector Cells alone or in co-culture with CHO K-1 PD-L1 aAPCs; test: Cytotoxicity / cell viability assay (tetrazolium reagent); format: cell-based; details: not toxic up to the stated final concentration
primary human T cells = test: Flow cytometry of activation markers on primary T cells (PBMCs on hPD-L1 aAPCs); format: cell-based; details: 48 h
Method: The biological activity of the compound 2k was further verified on the primary T cells. For this, peripheral blood mononuclear cells (PBMCs) isolated from the blood of healthy donors were contacted with hPD-L1 aAPCs to provide TCR-mediated activation of T cells and the engagement of PD-1/PD-L1 immune checkpoint. The cells were then analyzed with flow cytometry following the gating for CD4^+ and CD8^+ T cells. The blockade of the PD-1/PD-L1 immune checkpoint was expected to increase the activation of T cells. In the experiment, atezolizumab and compound 2k were used. […] Because the prolonged activation of T cells leads to the increase of the expression of immune checkpoint molecules,[30] we have monitored the expression of PD-1 protein itself as an indicator of the late T cell activation and exhaustion. […] This confirms the bioactivity of the compound 2k in the context of primary T cells.
Blood samples from healthy donors were purchased from the Regional Center of Blood Donation and Blood Therapy in Krakow. PBMCs were isolated by a density gradient centrifugation using Pancoll human separating solutions (PAN-Biotech) and then resuspended in RPMI 1640 medium (Biowest) containing 10% FBS (Biowest).
PBMCs were added to the preseeded aAPCs at the density of 400 000 cells/well and incubated in the presence of compound 2k, DMSO, and with or without atezolizumab (5 μg/mL) as an anti-PD-L1 monoclonal antibody. After 48 h, cells were detached using TrypLe Select Enzyme (Thermo Fisher Scientific), collected into 5 mL round-bottom tubes, and washed with flow cytometry staining buffer (Thermo Fisher Scientific). For flow cytometry analysis, cells were stained using monoclonal antibodies: anti-CD69-APC, anti-CD4-FITC, anti-CD8-BV510, and anti-PD1-PECy7 (Becton Dickinson, BD). Following 20 min of incubation at room temperature, cells were washed, resuspended in PBS, and analyzed using a FACSCanto II flow cytometer (BD) and FACSDiva software (BD). The data analysis was carried out with FACSuite software (BD).

human PD-L1 [5] = target: T5, human PD-L1; test: MicroScale Thermophoresis (MST) binding assay, human PD-L1; details: hPD-L1
N66A-PD-1/PD-L1 complex = target: T7, N66A-PD-1/PD-L1 complex (Homo sapiens, UniProt Q9NZQ7); test: w-AIDA-NMR (weak antagonist-induced dissociation assay); format: binding; details: equimolar concentrations
T7 construct: hPD-L1 residues, 18–134, C-terminal His-tag; His-tag (C); made in house; host or cells: Escherichia coli BL21 (DE3)
Description: Because HTRF is prone to “false positives”, especially aggregators and autofluorophores, we validated the results using the w-AIDA-NMR assay developed by us. […] In the w-AIDA-NMR 2D experiment, ^15N mutated PD-1 gives a characteristic pattern of peaks (Figure 2A). Peak assignment is not necessary as we observe a relative change in the intensity and positions of the reference peaks upon the addition of ligand/inhibitors. Upon the formation of the complex with PD-L1, most of the cross-peaks in the ^1H–^15N HMQC spectrum of PD-1 became broader and less intense with some of the cross-peaks disappearing (Figure 2B). If the inhibitor is capable of disrupting the complex, the resulting spectrum should come back to the reference one of PD-1 alone, as tested inhibitors are PD-L1 binders. […]
Uniform ^15N labeling was obtained by expressing proteins in the M9 minimal medium containing ^15NH4Cl as the sole nitrogen source. […] All spectra were recorded at 300 K using a Bruker Avance III 600 MHz spectrometer equipped with the nitrogen cryoprobe. The ability of tested compounds to dissociate PD-L1/(wild type, wt or N66A)PD-1 was evaluated using the (weak) antagonist-induced dissociation assay (w-AIDA-NMR). […] During the experiment, the ^1H–^15N signals were monitored by SOFAST HMQC.

T7 sequence (Q9NZQ7 18-134, stated change not applied, one chain of several): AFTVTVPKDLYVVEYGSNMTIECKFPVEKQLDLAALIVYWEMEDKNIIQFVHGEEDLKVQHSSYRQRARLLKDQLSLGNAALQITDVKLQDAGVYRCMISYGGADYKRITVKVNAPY
T3 sequence (Q9NZQ7 18-134, one chain of several): as the sequence (Q9NZQ7 18-134, stated change not applied, one chain of several) above
T5 sequence (Q9NZQ7 18-134): as the sequence (Q9NZQ7 18-134, stated change not applied, one chain of several) above
T6 sequence (Q9NZQ7 19-290): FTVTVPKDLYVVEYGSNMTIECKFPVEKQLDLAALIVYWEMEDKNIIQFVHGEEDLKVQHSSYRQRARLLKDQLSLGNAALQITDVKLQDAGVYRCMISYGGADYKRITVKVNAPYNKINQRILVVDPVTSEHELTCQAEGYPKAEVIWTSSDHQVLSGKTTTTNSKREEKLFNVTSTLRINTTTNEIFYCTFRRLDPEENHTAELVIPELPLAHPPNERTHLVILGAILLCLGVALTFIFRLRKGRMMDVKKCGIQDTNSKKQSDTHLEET
T1 sequence (Q9NZQ7 19-238 limits assumed, one chain of several): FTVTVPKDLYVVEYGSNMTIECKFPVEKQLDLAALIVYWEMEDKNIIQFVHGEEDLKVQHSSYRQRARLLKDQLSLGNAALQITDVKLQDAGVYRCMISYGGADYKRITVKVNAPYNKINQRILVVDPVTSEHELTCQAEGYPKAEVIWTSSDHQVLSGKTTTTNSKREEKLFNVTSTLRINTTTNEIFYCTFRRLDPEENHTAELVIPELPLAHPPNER
T2 sequence (Q9EP73 19-134): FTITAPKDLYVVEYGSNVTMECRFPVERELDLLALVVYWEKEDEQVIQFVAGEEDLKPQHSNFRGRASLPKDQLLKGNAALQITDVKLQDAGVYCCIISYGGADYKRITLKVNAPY
T4 sequence (Q9NZQ7 19-238 limits assumed, one chain of several): as the sequence (Q9NZQ7 19-238 limits assumed, one chain of several) above

Molecule: O=C(O)[C@@H]1CCCCN1Cc1ccc(OCc2cccc(-c3ccccc3)c2Br)cc1 [2h, (S)-1-(4-((2-Bromo-[1,1′-biphenyl]-3-yl)methoxy)benzyl)piperidine-2-carboxylic Acid]
- IC50 [1]: 0.522 ± 0.0005 µM

Molecule: Cc1cc(CN2CCCC[C@H]2C(=O)O)ccc1OCc1cccc(-c2ccccc2)c1Br [2i, (S)-1-(4-((2-Bromo-[1,1′-biphenyl]-3-yl)methoxy)-3-methylbenzyl)piperidine-2-carboxylic Acid]
- MST KD (murine PD-L1): no activity

Molecule: O=C(O)[C@@H]1CCCCN1Cc1ccc(OCc2cccc(-c3ccccc3)c2Br)c(Br)c1 [2k, (S)-1-(3-Bromo-4-((2-bromo-[1,1′-biphenyl]-3-yl)methoxy)benzyl)piperidine-2-carboxylic Acid]
- dissociation of the wtPD-1/PD-L1 complex (wtPD-1/PD-L1 complex): dissociated
- IC50 (human PD-1/PD-L1 complex): 0.00147 ± 5e-05 µM
- direct binding to hPD-L1 (1H NMR) (human PD-L1 [2]): caused flattening of 2D spectra characteristic for the dimerization; also recorded: caused a characteristic dimerization of hPD-L1
- level of the Jurkat T cell activation ([3]; at a 50 μM concentration): 2.1 fold
- toxic concentration in cell viability assay [4]: > 100 µM
- expression of PD-1 receptor on the surface of CD4+ and CD8+ T cells (primary human T cells): significant increase
- expression of early T-cell activation marker CD69 (primary human T cells): Neither of the two molecules was able to increase
- Kd (human PD-L1 [5]): 0.00404 µM and 0.004 µM
- MST KD (murine PD-L1): no activity

Molecule: atezolizumab: an anti-PD-L1 therapeutic antibody [reference compound]
- expression of PD-1 receptor on the surface of CD4+ and CD8+ T cells (primary human T cells): significant increase
- expression of early T-cell activation marker CD69 (primary human T cells): Neither of the two molecules was able to increase

Molecule: OCc1cccc(-c2ccccc2)c1-c1ccccc1 [1b, [1,1′:2′,1″-terphenyl]-3′-ylmethanol]
- IC50 [1]: > 100 µM

Molecule: O=C(NCCCN1CCOCC1)c1ccc(OCc2cccc(-c3ccccc3)c2Br)c(Br)c1 [2f, 4-(3-(3-Bromo-4-((2-bromo-[1,1′-biphenyl]-3-yl)methoxy)benzamido)propyl)morpholin-4-ium Hydrochloride]
- IC50 [1]: 13.2 ± 0.15 µM

Molecule: Durvalumab: a clinically relevant PD-L1-blocking antibody; positive control anti-hPD-L1 monoclonal antibody [reference compound]
- EC50 ([3]; reference antibody, Hill fit): 0.0002 ± 6e-05 µM

Molecule: COc1cc(CN2CCCC[C@H]2C(=O)O)ccc1OCc1cccc(-c2ccccc2)c1Br [2j, (S)-1-(4-((2-Bromo-[1,1′-biphenyl]-3-yl)methoxy)-3-methoxybenzyl)piperidine-2-carboxylic Acid]
- IC50 [1]: 0.204 ± 0.0064 µM
- EC50 ([3]; cell based assay, Table S1): > 500 µM

Molecule: CC(=O)NCCNCc1ccc(OCc2cccc(-c3ccccc3)c2Br)c(Br)c1 [2g, N-(2-((3-Bromo-4-((2-bromo-[1,1′-biphenyl]-3-yl)methoxy)benzyl)amino)ethyl)acetamide]
- IC50 [1]: 0.0122 ± 0.0002 µM
- toxicity of the compound observed above concentration ([3]; EC50 estimated on partial data because of it): above 10 μM
- EC50 ([3]; cell based assay, Table S1): 6.7 ± 1.1 µM
- Kd (human PD-L1 [5]): 0.00317 µM and 0.0032 µM
- MST KD (murine PD-L1): no activity

Molecule: OCc1cccc(-c2ccccc2)c1F [1c]
- dissociation of the mutant N66A-PD-1/PD-L1 complex (N66A-PD-1/PD-L1 complex): capable of dissociating; also recorded: all PD-1 peaks are restored; also recorded: dissociated
- dissociation of the wtPD-1/PD-L1 complex (wtPD-1/PD-L1 complex): not potent enough to dissociate

Molecule: BrCc1cccc(-c2ccccc2)c1Br [1a, 2-bromo-3-(bromomethyl)-1,1′-biphenyl]
- dissociation of the mutant N66A-PD-1/PD-L1 complex (N66A-PD-1/PD-L1 complex): capable of dissociating; also recorded: all PD-1 peaks are restored; also recorded: dissociated
- dissociation of the wtPD-1/PD-L1 complex (wtPD-1/PD-L1 complex): not able to dissociate

The next lines start with results.

- MST KD (murine PD-L1): no activity
Molecule: Cc1c(COc2cc(OCc3cccc(C#N)c3)c(CN3C[C@H](O)C[C@@H]3C(=O)O)cc2Cl)cccc1-c1ccc2c(c1)OCCO2 [BMS-1166, reference compound]

- solubility in DMSO/water conditions ([3]; disallowed data collection for the two highest concentrations): solubility problems
Molecule: N#Cc1cc(COc2cc(OCc3cccc(-c4ccccc4)c3Br)c(Cl)cc2CN2C[C@@H](O)C[C@H]2C(=O)O)ccn1 [3d]
- direct binding to hPD-L1 (1H NMR) (human PD-L1 [2]): caused flattening of 2D spectra characteristic for the dimerization; also recorded: caused a characteristic dimerization of hPD-L1

- IC50 [1]: 29.4 ± 0.45 µM
Molecule: N#Cc1ccc(-c2cccc(COc3ccc(C=O)cc3Br)c2Br)cc1 [4g, 2′-Bromo-3′-((2-bromo-4-formylphenoxy)methyl)-[1,1′-biphenyl]-4-carbonitrile]

- IC50 [1]: 49.1 ± 0.15 µM
Molecule: O=C(O)[C@@H]1C[C@H](O)CN1Cc1ccc(OCc2cccc(-c3ccccc3)c2-c2ccccc2)c(Br)c1 [4f, (2S,4S)-1-(4-([1,1′:2′,1″-Terphenyl]-3′-ylmethoxy)-3-bromobenzyl)-4-hydroxypyrrolidine-2-carboxylic Acid]
